From patent US20160320408A1, “METHODS OF T CELL EPITOPE PROFILING, MAKING T CELL COMPOSITIONS, AND TREATING DISEASES” (priority 2013, published 2016)

What was measured:
Assay type in all cases: cell-based, human
[1] = system: PBMC from a healthy donor
donor cells (PBMC) = system: donor cells (PBMC)
[2] = system: PBMC from a healthy donor; remark: listed apart in the source

DIKNDLYEKTLNDYKAIANK [TT1]
IFNγ over a positivity threshold set at 2.5-fold above the negative control (no peptide) cultures [1]: 0 pg/mL

IDKISDVSTIVPYIGPALNI [TT4]
generation of peptide-reactive T-cell line (in words) (donor cells (PBMC)): successfully generated | IFNγ response (in words) [1]: only one operator (HK) detecting a robust response

IVVYNLQSKITLPNDRTTPV [TT2]
IFNγ over a positivity threshold set at 2.5-fold above the negative control (no peptide) cultures [1]: 0 pg/mL

NLVPMVATV [CMVpp65]
detection of IFNγ secreting T-cells, direct ex vivo ELISpot (in words) [2]: readily detectable
